Measured values as given in US10906889B2, “Polycyclic inhibitors of cyclin-dependent kinase 7 (CDK7)” (Dana-Farber Cancer Institute, Inc., priority 2013, dated 2021).
Where two headings read alike, the source gives them in different places.

How the values were obtained:
[1] = molecular target: T1, CDK7 (Homo sapiens, UniProt P50613); assay: Adapta kinase assay (Life Technologies), CDK7; type: biochemical
T1 construct: purchased Life Technologies (assay service)

[2] = system: Jurkat cells; assay: Cell proliferation (CellTiter-Glo, 72 hour), Jurkat; type: cell-based; conditions: Homo sapiens, blood cancer cell line
[3] = Table 1C, co-factors cyclin H and MNAT1, read-out: CDK7 IC50

T1 sequence (P50613 whole entry): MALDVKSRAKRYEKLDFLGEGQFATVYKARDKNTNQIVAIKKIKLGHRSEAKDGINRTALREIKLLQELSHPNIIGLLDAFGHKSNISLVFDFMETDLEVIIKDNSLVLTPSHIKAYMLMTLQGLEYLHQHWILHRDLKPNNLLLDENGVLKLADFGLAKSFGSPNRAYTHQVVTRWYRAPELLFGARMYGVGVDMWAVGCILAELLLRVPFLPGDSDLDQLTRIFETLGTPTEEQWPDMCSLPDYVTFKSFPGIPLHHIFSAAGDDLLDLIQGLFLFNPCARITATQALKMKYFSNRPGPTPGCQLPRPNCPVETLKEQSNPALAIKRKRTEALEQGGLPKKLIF
T1 sequence (P51946 whole entry partner): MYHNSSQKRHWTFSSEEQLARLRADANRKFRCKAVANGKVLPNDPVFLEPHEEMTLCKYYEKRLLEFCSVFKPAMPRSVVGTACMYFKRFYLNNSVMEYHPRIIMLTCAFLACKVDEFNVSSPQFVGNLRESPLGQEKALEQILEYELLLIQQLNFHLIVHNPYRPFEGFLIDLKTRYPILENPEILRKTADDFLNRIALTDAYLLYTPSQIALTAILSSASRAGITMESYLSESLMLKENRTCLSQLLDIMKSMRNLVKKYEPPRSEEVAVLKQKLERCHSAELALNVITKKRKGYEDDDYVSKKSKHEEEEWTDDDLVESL
T1 sequence (P51948 whole entry partner): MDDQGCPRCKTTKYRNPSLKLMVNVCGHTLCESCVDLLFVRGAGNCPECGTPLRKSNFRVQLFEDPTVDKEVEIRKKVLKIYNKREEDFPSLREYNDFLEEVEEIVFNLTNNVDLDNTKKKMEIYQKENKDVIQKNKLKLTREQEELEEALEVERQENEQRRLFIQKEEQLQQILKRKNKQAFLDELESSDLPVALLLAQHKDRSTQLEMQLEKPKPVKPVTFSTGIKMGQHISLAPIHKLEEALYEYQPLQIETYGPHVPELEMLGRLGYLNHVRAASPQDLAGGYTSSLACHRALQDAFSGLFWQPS

Structure (SMILES)	IC50 [1, 3] [nM]	IC50 [2] [nM]	IC50 ([1]; Table 2, co-factors cyclin H and MNAT1, read-out: CDK7 (calculated IC50)) [nM]
CN(C)C/C=C/C(=O)Nc1ccc(C(=O)N[C@H]2CC[C@H](Nc3ncc(Cl)c(-c4c[nH]c5ccccc45)n3)CC2)cc1 [Compound 106]	< 100	–	–
CN(C/C=C/C(=O)Nc1ccc(C(=O)N[C@H]2CCC[C@@H](Nc3ncc(Cl)c(-c4c[nH]c5ccccc45)n3)C2)cc1)CC(=O)O [Compound 131, 2-(((E)-4-(4-((1S,3R)-3-(5-chloro-4-(1H-indol-3-yl)pyrimidin-2-ylamino)cyclohexylcarbamoyl)phenylamino)-4-oxobut-2-enyl)(methyl)amino)acetic acid]	< 100	< 500	–
C=CC(=O)Nc1cccc(C(=O)N[C@H]2CC[C@H](Nc3ncc(Cl)c(-c4c[nH]c5ccccc45)n3)CC2)c1 [Compound 135, 3-acrylamido-N-((trans)-4-(5-chloro-4-(1H-indol-3-yl)pyrimidin-2-ylamino)cyclohexyl)benzamide]	< 100	< 500	–
CC(C)=CC(=O)Nc1ccc(C(=O)N[C@H]2CCC[C@@H](Nc3ncc(Cl)c(-c4c[nH]c5ccccc45)n3)C2)cc1 [Compound 118, N-((1S,3R)-3-(5-chloro-4-(1H-indol-3-yl)pyrimidin-2-ylamino)cyclohexyl)-4-(3-methylbut-2-enamido)benzamide]	100 to 1000	500 to 5000	–
C=CC(=O)Nc1ccc(C(=O)N[C@H]2CCC[C@@H](Nc3ncc(Cl)c(-c4n[nH]c5ccccc45)n3)C2)cc1 [Compound 151, 4-acrylamido-N-((1S,3R)-3-((5-chloro-4-(1H-indazol-3-yl)pyrimidin-2-yl)amino)cyclohexyl)benzamide]	< 100	–	–
C=CC(=O)Nc1ccc([C@@H](N[C@H]2CCC[C@@H](Nc3ncc(Cl)c(-c4c[nH]c5ccccc45)n3)C2)C(F)(F)F)cc1 [Compound 136, N-(4-((R)-1-((1S,3R)-3-(5-chloro-4-(1H-indol-3-yl)pyrimidin-2-ylamino)cyclohexylamino)-2,2,2-trifluoroethyl)phenyl)acrylamide]	> 1000	–	–
C=CC(=O)Nc1cccc(CO[C@H]2CC[C@H](Nc3ncc(Cl)c(-c4c[nH]c5ccccc45)n3)CC2)c1 [Compound 155, N-(3-((((1R,4R)-4-((5-chloro-4-(1H-indol-3-yl)pyrimidin-2-yl)amino)cyclohexyl)oxy)methyl)phenyl)acrylamide]	> 1000	–	–
C=CC(=O)Nc1ccc(C(=O)N[C@H]2CCC[C@@H](Nc3ncc(Cl)c(-c4c(C)[nH]c5ccccc45)n3)C2)cc1 [Compound 153, 4-acrylamido-N-((1S,3R)-3-((5-chloro-4-(2-methyl-1H-indol-3-yl)pyrimidin-2-yl)amino)cyclohexyl)benzamide]	< 100	–	–
CN(C)C/C=C/C(=O)Nc1ccc(C(=O)NC2CCC(Nc3ncc(Cl)c(-c4c[nH]c5ccccc45)n3)CC2)cc1 (centres unmarked) [Compound 105]	< 100	–	< 100
CON(C)C/C=C/C(=O)Nc1ccc(C(=O)N[C@H]2CCC[C@@H](Nc3ncc(Cl)c(-c4c[nH]c5ccccc45)n3)C2)cc1 [Compound 160]	100 to 1000	–	–
Cc1[nH]c2ccccc2c1-c1nc(N[C@@H]2CCC[C@H](NC(=O)c3ccc(NC(=O)/C=C/CN(C)C)cc3)C2)ncc1Cl [Compound 154, N-((1S,3R)-3-((5-chloro-4-(2-methyl-1H-indol-3-yl)pyrimidin-2-yl)amino)cyclohexyl)-4-((E)-4-(dimethylamino)but-2-enamido)benzamide]	< 100	–	–
CN(C)C/C=C/C(=O)Nc1ccc(C(=O)N[C@H]2CCC[C@@H](Nc3nccc(-c4c[nH]c5ccccc45)n3)C2)cc1 [Compound 132, N-((1S,3R)-3-(4-(1H-indol-3-yl)pyrimidin-2-ylamino)cyclohexyl)-4-((E)-4-(dimethylamino)but-2-enamido)benzamide]	> 1000	–	–
CN(C)C/C=C/C(=O)Nc1ccc(C(=O)N[C@H]2CCC[C@@H](Nc3ncc(Cl)c(-c4cn(C)c5ccccc45)n3)C2)cc1 [Compound 150]	< 100	–	–
